{"source": "ChEMBL document CHEMBL4406882", "about": "“The plant-derived chalcone Xanthoangelol targets the membrane of Gram-positive bacteria” (Bioorg Med Chem, 2019)", "key": {"Bacillus subtilis [1]": {"system": "Bacillus subtilis", "experiment": "Induction of DnaK.2 protein expression in Bacillus subtilis 168 at 2.3 uM incubated for 15 mins by 35S-methionine pulse labeling based 2D-PAGE analysis", "assay_type": "functional, organism-based"}, "Staphylococcus aureus [2]": {"system": "Staphylococcus aureus", "experiment": "Induction of membrane integrity impairment in methicillin-resistant Staphylococcus aureus ATCC 700699 at 12.5 to 25 uM measured for 3 hrs by PI staining based fluorescence assay", "assay_type": "functional, organism-based"}, "Bacillus subtilis [3]": {"system": "Bacillus subtilis", "experiment": "Induction of YwfI protein expression in Bacillus subtilis 168 at 2.3 uM incubated for 15 mins by 35S-methionine pulse labeling based 2D-PAGE analysis", "assay_type": "functional, organism-based"}, "Bacillus subtilis [4]": {"system": "Bacillus subtilis", "experiment": "Induction of YdjE protein expression in Bacillus subtilis 168 at 2.3 uM incubated for 15 mins by 35S-methionine pulse labeling based 2D-PAGE analysis", "assay_type": "functional, organism-based"}, "Bacillus subtilis [5]": {"system": "Bacillus subtilis", "experiment": "Induction of DnaK.1 protein expression in Bacillus subtilis 168 at 2.3 uM incubated for 15 mins by 35S-methionine pulse labeling based 2D-PAGE analysis", "assay_type": "functional, organism-based"}, "Bacillus subtilis [6]": {"system": "Bacillus subtilis", "experiment": "Induction of SodA protein expression in Bacillus subtilis 168 at 2.3 uM incubated for 15 mins by 35S-methionine pulse labeling based 2D-PAGE analysis", "assay_type": "functional, organism-based"}, "Bacillus subtilis [7]": {"system": "Bacillus subtilis", "experiment": "Induction of GroEL.1 protein expression in Bacillus subtilis 168 at 2.3 uM incubated for 15 mins by 35S-methionine pulse labeling based 2D-PAGE analysis", "assay_type": "functional, organism-based"}, "Bacillus subtilis [8]": {"system": "Bacillus subtilis", "experiment": "Induction of GroES protein expression in Bacillus subtilis 168 at 2.3 uM incubated for 15 mins by 35S-methionine pulse labeling based 2D-PAGE analysis", "assay_type": "functional, organism-based"}, "Bacillus subtilis [9]": {"system": "Bacillus subtilis", "experiment": "Induction of BdhA protein expression in Bacillus subtilis 168 at 2.3 uM incubated for 15 mins by 35S-methionine pulse labeling based 2D-PAGE analysis", "assay_type": "functional, organism-based"}, "Bacillus subtilis [10]": {"system": "Bacillus subtilis", "experiment": "Induction of SerA protein expression in Bacillus subtilis 168 at 2.3 uM incubated for 15 mins by 35S-methionine pulse labeling based 2D-PAGE analysis", "assay_type": "functional, organism-based"}, "Staphylococcus aureus [11]": {"system": "Staphylococcus aureus", "experiment": "Antibacterial activity against methicillin-resistant Staphylococcus aureus ATCC 700699 assessed as delay in growth at 6.25 uM measured for 24 hrs relative to control", "assay_type": "functional"}, "Bacillus subtilis [12]": {"system": "Bacillus subtilis", "experiment": "Induction of Hag protein expression in Bacillus subtilis 168 at 2.3 uM incubated for 15 mins by 35S-methionine pulse labeling based 2D-PAGE analysis", "assay_type": "functional, organism-based"}, "Bacillus subtilis [13]": {"system": "Bacillus subtilis", "experiment": "Induction of Tpx protein expression in Bacillus subtilis 168 at 2.3 uM incubated for 15 mins by 35S-methionine pulse labeling based 2D-PAGE analysis", "assay_type": "functional, organism-based"}, "Bacillus subtilis [14]": {"system": "Bacillus subtilis", "experiment": "Induction of PspA protein expression in Bacillus subtilis 168 at 2.3 uM incubated for 15 mins by 35S-methionine pulse labeling based 2D-PAGE analysis", "assay_type": "functional, organism-based"}, "Bacillus subtilis [15]": {"system": "Bacillus subtilis", "experiment": "Induction of PepF protein expression in Bacillus subtilis 168 at 2.3 uM incubated for 15 mins by 35S-methionine pulse labeling based 2D-PAGE analysis", "assay_type": "functional, organism-based"}, "Bacillus subtilis [16]": {"system": "Bacillus subtilis", "experiment": "Induction of YceH protein expression in Bacillus subtilis 168 at 2.3 uM incubated for 15 mins by 35S-methionine pulse labeling based 2D-PAGE analysis", "assay_type": "functional, organism-based"}, "Bacillus subtilis [17]": {"system": "Bacillus subtilis", "experiment": "Induction of YfmJ protein expression in Bacillus subtilis 168 at 2.3 uM incubated for 15 mins by 35S-methionine pulse labeling based 2D-PAGE analysis", "assay_type": "functional, organism-based"}, "Bacillus subtilis [18]": {"system": "Bacillus subtilis", "experiment": "Induction of AroA protein expression in Bacillus subtilis 168 at 2.3 uM incubated for 15 mins by 35S-methionine pulse labeling based 2D-PAGE analysis", "assay_type": "functional, organism-based"}, "Bacillus subtilis [19]": {"system": "Bacillus subtilis", "experiment": "Induction of YhfK protein expression in Bacillus subtilis 168 at 2.3 uM incubated for 15 mins by 35S-methionine pulse labeling based 2D-PAGE analysis", "assay_type": "functional, organism-based"}, "Staphylococcus aureus [20]": {"system": "Staphylococcus aureus", "experiment": "Bactericidal activity against methicillin-resistant Staphylococcus aureus ATCC 700699 assessed as reduction in bacterial CFU at 4 times MIC measured for 30 mins", "assay_type": "functional"}, "Staphylococcus aureus [21]": {"system": "Staphylococcus aureus", "experiment": "Antibacterial activity against methicillin-resistant Staphylococcus aureus ATCC 700699 assessed as delay in growth at 1.56 uM measured for 6 hrs", "assay_type": "functional, organism-based"}, "Bacillus subtilis [22]": {"system": "Bacillus subtilis", "experiment": "Induction of ClpC protein expression in Bacillus subtilis 168 at 2.3 uM incubated for 15 mins by 35S-methionine pulse labeling based 2D-PAGE analysis", "assay_type": "functional, organism-based"}, "Enterococcus faecalis [23]": {"system": "Enterococcus faecalis", "experiment": "Antibacterial activity against vancomycin-resistant Enterococcus faecalis ATCC 51299 by broth micro dilution method", "assay_type": "functional"}, "Bacillus subtilis [24]": {"system": "Bacillus subtilis", "experiment": "Induction of YvlB protein expression in Bacillus subtilis 168 at 2.3 uM incubated for 15 mins by 35S-methionine pulse labeling based 2D-PAGE analysis", "assay_type": "functional, organism-based"}, "Bacillus subtilis [25]": {"system": "Bacillus subtilis", "experiment": "Induction of CysK protein expression in Bacillus subtilis 168 at 2.3 uM incubated for 15 mins by 35S-methionine pulse labeling based 2D-PAGE analysis", "assay_type": "functional, organism-based"}, "Staphylococcus aureus [26]": {"system": "Staphylococcus aureus", "experiment": "Antibacterial activity against Staphylococcus aureus ATCC 25923 by broth micro dilution method", "assay_type": "functional"}, "[27]": {"experiment": "Cytotoxicity against human CLS54 cells assessed as reduction in cell viability incubated for 48 hrs by resazurin reagent based assay"}, "Bacillus subtilis [28]": {"system": "Bacillus subtilis", "experiment": "Induction of AhpF protein expression in Bacillus subtilis 168 at 2.3 uM incubated for 15 mins by 35S-methionine pulse labeling based 2D-PAGE analysis", "assay_type": "functional, organism-based"}, "Acinetobacter baumannii": {"system": "Acinetobacter baumannii", "experiment": "Antibacterial activity against multidrug-resistant Acinetobacter baumannii ATCC BAA-1605 by broth micro dilution method", "assay_type": "functional"}, "Bacillus subtilis [29]": {"system": "Bacillus subtilis", "experiment": "Induction of YqiG protein expression in Bacillus subtilis 168 at 2.3 uM incubated for 15 mins by 35S-methionine pulse labeling based 2D-PAGE analysis", "assay_type": "functional, organism-based"}, "Bacillus subtilis [30]": {"system": "Bacillus subtilis", "experiment": "Induction of GroEL.2 protein expression in Bacillus subtilis 168 at 2.3 uM incubated for 15 mins by 35S-methionine pulse labeling based 2D-PAGE analysis", "assay_type": "functional, organism-based"}, "[31]": {"experiment": "Selectivity index, ratio of IC50 for human MRC5 cells to MIC90 for methicillin-resistant Staphylococcus aureus ATCC 700699", "assay_type": "toxicity", "conditions": "read-out: Selectivity Index"}, "Bacillus subtilis [32]": {"system": "Bacillus subtilis", "experiment": "Antibacterial activity against Bacillus subtilis 168 by broth micro dilution method", "assay_type": "functional"}, "Enterococcus faecalis [33]": {"system": "Enterococcus faecalis", "experiment": "Antibacterial activity against vancomycin-resistant Enterococcus faecalis ATCC 700221 by broth micro dilution method", "assay_type": "functional"}, "Bacillus subtilis [34]": {"system": "Bacillus subtilis", "experiment": "Induction of NfrA protein expression in Bacillus subtilis 168 at 2.3 uM incubated for 15 mins by 35S-methionine pulse labeling based 2D-PAGE analysis", "assay_type": "functional, organism-based"}, "Staphylococcus aureus [35]": {"system": "Staphylococcus aureus", "experiment": "Induction of membrane integrity impairment in methicillin-resistant Staphylococcus aureus ATCC 700699 at 0.5 to 4 times MIC measured for 30 mins by DiOC2(3) probe based fluorescence assay", "assay_type": "functional, organism-based"}, "Enterococcus faecalis [36]": {"system": "Enterococcus faecalis", "experiment": "Antibacterial activity against Enterococcus faecalis ATCC 29212 by broth micro dilution method", "assay_type": "functional"}, "Bacillus subtilis [37]": {"system": "Bacillus subtilis", "experiment": "Induction of ArgB protein expression in Bacillus subtilis 168 at 2.3 uM incubated for 15 mins by 35S-methionine pulse labeling based 2D-PAGE analysis", "assay_type": "functional, organism-based"}}, "note": "Activity calls are given as the source filed them. The calls are words filed in the database; no cut-off is given here."}
{"molecule": "CC(C)=CCC/C(C)=C/Cc1c(O)ccc(C(=O)/C=C/c2ccc(O)cc2)c1O", "note": "[XANTHOANGELOL]", "values": [{"measurement": "Activity", "setting": "Bacillus subtilis [1]", "value": "Active"}, {"measurement": "Activity", "setting": "Staphylococcus aureus [2]", "value": "Active"}, {"measurement": "Activity", "setting": "Bacillus subtilis [3]", "value": "Active"}, {"measurement": "Activity", "setting": "Bacillus subtilis [4]", "value": "Active"}, {"measurement": "Activity", "setting": "Bacillus subtilis [5]", "value": "Active"}, {"measurement": "Activity", "setting": "Bacillus subtilis [6]", "value": "Active"}, {"measurement": "Activity", "setting": "Bacillus subtilis [7]", "value": "Active"}, {"measurement": "Activity", "setting": "Bacillus subtilis [8]", "value": "Active"}, {"measurement": "Activity", "setting": "Bacillus subtilis [9]", "value": "Active"}, {"measurement": "Activity", "setting": "Bacillus subtilis [10]", "value": "Active"}, {"measurement": "Activity", "setting": "Staphylococcus aureus [11]", "value": 100, "unit": "%"}, {"measurement": "Activity", "setting": "Bacillus subtilis [12]", "value": "Active"}, {"measurement": "Activity", "setting": "Bacillus subtilis [13]", "value": "Active"}, {"measurement": "Activity", "setting": "Bacillus subtilis [14]", "value": "Active"}, {"measurement": "Activity", "setting": "Bacillus subtilis [15]", "value": "Active"}, {"measurement": "Activity", "setting": "Bacillus subtilis [16]", "value": "Active"}, {"measurement": "Activity", "setting": "Bacillus subtilis [17]", "value": "Active"}, {"measurement": "Activity", "setting": "Bacillus subtilis [18]", "value": "Active"}, {"measurement": "Activity", "setting": "Bacillus subtilis [19]", "value": "Active"}, {"measurement": "Activity", "setting": "Staphylococcus aureus [20]", "value": "<20", "unit": "CFU/ml"}, {"measurement": "Activity", "setting": "Staphylococcus aureus [21]", "value": "Active"}, {"measurement": "Activity", "setting": "Bacillus subtilis [22]", "value": "Active"}, {"measurement": "MIC", "setting": "Enterococcus faecalis [23]", "value": 6.25, "unit": "µM"}, {"measurement": "Activity", "setting": "Bacillus subtilis [24]", "value": "Active"}, {"measurement": "Activity", "setting": "Bacillus subtilis [25]", "value": "Active"}, {"measurement": "MIC", "setting": "Staphylococcus aureus [26]", "value": 6.25, "unit": "µM"}, {"measurement": "IC50", "setting": "[27]; Homo sapiens, 48 h", "value": 58.8, "unit": "µM"}, {"measurement": "IC90 at 48 h", "setting": "[27]; human, CLS54 cells", "value": 85.8, "unit": "µM"}, {"measurement": "Activity", "setting": "Bacillus subtilis [28]", "value": "Active"}, {"measurement": "MIC", "setting": "Acinetobacter baumannii", "value": "> 100", "unit": "µM"}, {"measurement": "Activity", "setting": "Bacillus subtilis [29]", "value": "Active"}, {"measurement": "Activity", "setting": "Bacillus subtilis [30]", "value": "Active"}, {"measurement": "selectivity ratio", "setting": "[31]", "value": 16.3}, {"measurement": "MIC", "setting": "Bacillus subtilis [32]", "value": 3.12, "unit": "µM"}, {"measurement": "MIC", "setting": "Enterococcus faecalis [33]", "value": 3.12, "unit": "µM"}, {"measurement": "Activity", "setting": "Bacillus subtilis [34]", "value": "Active"}, {"measurement": "Activity", "setting": "Staphylococcus aureus [35]", "value": "Active"}, {"measurement": "MIC", "setting": "Enterococcus faecalis [36]", "value": 12.5, "unit": "µM"}, {"measurement": "Activity", "setting": "Bacillus subtilis [37]", "value": "Active"}]}
